# Assay results reported in patent publication US10336732B2, “1-heterocyclyl isochromanyl compounds and analogs for treating CNS disorders” (Sunovion Pharmaceuticals Inc., priority 2015, dated 2019).
# Test system: mice
# Assay: Neuropharmacological assay (SmartCube), behavioral signature of compound-treated mice
# Type: in vivo
# Conditions: i.p. 15 min before behavioral test, most efficacious dose(s) of 3 doses
# How it was run: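 Mice received compound i.p. in NMP/PEG/propylene glycol vehicle at 3 doses, 15 min before testing. Video-captured behavior was algorithmically compared with a reference-drug signature database.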
Structure (SMILES),AD: ADHD (probability that behavioral signature matches class),AG: analgesic (probability that behavioral signature matches class),AX: anxiolytic (probability that behavioral signature matches class),CE: cognitive enhancer (probability that behavioral signature matches class),DP: anti-depressant (probability that behavioral signature matches class),HA: hallucinogen (probability that behavioral signature matches class),MS: mood stabilizer (probability that behavioral signature matches class),PS: anti-psychotic (probability that behavioral signature matches class),SD: sedative hypnotic (probability that behavioral signature matches class),UN: uncharacterized CNS activity (probability that behavioral signature matches class),XG: anxiogenic (probability that behavioral signature matches class)
"COc1cccc2c1[C@@H]([C@@H]1CCCN1)OCC2 [Compound I-48, (S)-2-((S)-8-methoxyisochroman-1-yl)pyrrolidine]",+ (LOQ ≤ + <5%),+++ (25% ≤ +++ <50%),++ (5% ≤ ++ <25%),++ (5% ≤ ++ <25%),++ (5% ≤ ++ <25%),+ (LOQ ≤ + <5%),+ (LOQ ≤ + <5%),++ (5% ≤ ++ <25%),+ (LOQ ≤ + <5%),+ (LOQ ≤ + <5%),+ (LOQ ≤ + <5%)
"c1ccc2c(c1)CCO[C@@H]2[C@@H]1CCCCN1 [Compound I-71, (S)-2-((S)-isochroman-1-yl)piperidine]",+ (LOQ ≤ + <5%),+ (LOQ ≤ + <5%),+++ (25% ≤ +++ <50%),++ (5% ≤ ++ <25%),++ (5% ≤ ++ <25%),+ (LOQ ≤ + <5%),++ (5% ≤ ++ <25%),++ (5% ≤ ++ <25%),+ (LOQ ≤ + <5%),+ (LOQ ≤ + <5%),+ (LOQ ≤ + <5%)
"Cc1ccc2c(c1)[C@H]([C@@H]1CCCN1)OCC2 [Compound I-25, (S)-2-((R)-7-methylisochroman-1-yl)pyrrolidine]",+ (LOQ ≤ + <5%),+++ (25% ≤ +++ <50%),++ (5% ≤ ++ <25%),++ (5% ≤ ++ <25%),++ (5% ≤ ++ <25%),+ (LOQ ≤ + <5%),+ (LOQ ≤ + <5%),++ (5% ≤ ++ <25%),+ (LOQ ≤ + <5%),++ (5% ≤ ++ <25%),+ (LOQ ≤ + <5%)
"FC1(F)CN[C@H]([C@H]2OCCc3ccccc32)C1 [Compound I-63, (S)-4,4-difluoro-2-((S)-isochroman-1-yl)pyrrolidine]",+ (LOQ ≤ + <5%),+ (LOQ ≤ + <5%),+ (LOQ ≤ + <5%),+ (LOQ ≤ + <5%),+ (LOQ ≤ + <5%),+ (LOQ ≤ + <5%),+ (LOQ ≤ + <5%),+ (LOQ ≤ + <5%),+ (LOQ ≤ + <5%),+ (LOQ ≤ + <5%),+ (LOQ ≤ + <5%)
"Fc1ccc2c(c1)CO[C@@H]2[C@@H]1CCN1 [Compound I-126, (S)-2-((S)-5-fluoro-1,3-dihydroisobenzofuran-1-yl)azetidine]",+ (LOQ ≤ + <5%),++ (5% ≤ ++ <25%),++ (5% ≤ ++ <25%),++ (5% ≤ ++ <25%),+++ (25% ≤ +++ <50%),+ (LOQ ≤ + <5%),+ (LOQ ≤ + <5%),+++ (25% ≤ +++ <50%),++ (5% ≤ ++ <25%),++ (5% ≤ ++ <25%),+ (LOQ ≤ + <5%)
"Cc1cccc2c1[C@@H]([C@@H]1CCCN1)OCC2 [Compound I-21, (S)-2-((S)-8-methylisochroman-1-yl)pyrrolidine]",+ (LOQ ≤ + <5%),++ (5% ≤ ++ <25%),++ (5% ≤ ++ <25%),+ (LOQ ≤ + <5%),++ (5% ≤ ++ <25%),+ (LOQ ≤ + <5%),+ (LOQ ≤ + <5%),++ (5% ≤ ++ <25%),+ (LOQ ≤ + <5%),+++ (25% ≤ +++ <50%),+ (LOQ ≤ + <5%)
"c1cc2c(c3c1CCO[C@@H]3[C@@H]1CCCN1)OCO2 [Compound I-51, (S)-2-((S)-7,9-dihydro-6H-[1,3]dioxolo[4,5-h]isochromen-9-yl)pyrrolidine]",+ (LOQ ≤ + <5%),++ (5% ≤ ++ <25%),++ (5% ≤ ++ <25%),+ (LOQ ≤ + <5%),+ (LOQ ≤ + <5%),+ (LOQ ≤ + <5%),+ (LOQ ≤ + <5%),+ (LOQ ≤ + <5%),+ (LOQ ≤ + <5%),++ (5% ≤ ++ <25%),+ (LOQ ≤ + <5%)
"c1cc2c(c3c1CO[C@H]3[C@@H]1CCCN1)OCO2 [Compound I-141, (S)-2-((R)-6,8-dihydro-[1,3]dioxolo[4,5-e]isobenzofuran-8-yl)-pyrrolidine]",++ (5% ≤ ++ <25%),++ (5% ≤ ++ <25%),++ (5% ≤ ++ <25%),+++ (25% ≤ +++ <50%),++ (5% ≤ ++ <25%),++ (5% ≤ ++ <25%),+ (LOQ ≤ + <5%),++ (5% ≤ ++ <25%),+ (LOQ ≤ + <5%),++++ (50% ≤ ++++),+ (LOQ ≤ + <5%)
"c1ccc2c(c1)CCCO[C@H]2[C@@H]1CCCN1 [Compound I-98, (S)-2-((R)-1,3,4,5-tetrahydrobenzo[c]oxepin-1-yl)pyrrolidine]",+ (LOQ ≤ + <5%),+ (LOQ ≤ + <5%),++ (5% ≤ ++ <25%),+ (LOQ ≤ + <5%),+++ (25% ≤ +++ <50%),+ (LOQ ≤ + <5%),++ (5% ≤ ++ <25%),+++ (25% ≤ +++ <50%),++ (5% ≤ ++ <25%),+ (LOQ ≤ + <5%),+ (LOQ ≤ + <5%)
"c1cc2c(c3c1CCO[C@@H]3[C@@H]1CCN1)OCO2 [Compound I-143, (S)-2-((S)-7,9-dihydro-6H-[1,3]dioxolo[4,5-h]isochromen-9-yl)azetidine]",+ (LOQ ≤ + <5%),++ (5% ≤ ++ <25%),++ (5% ≤ ++ <25%),+ (LOQ ≤ + <5%),++ (5% ≤ ++ <25%),+ (LOQ ≤ + <5%),+ (LOQ ≤ + <5%),++ (5% ≤ ++ <25%),+ (LOQ ≤ + <5%),+++ (25% ≤ +++ <50%),+ (LOQ ≤ + <5%)
"Fc1ccc2c(c1)[C@@H]([C@@H]1CCCN1)OCCC2 [Compound I-106, (S)-2-((S)-8-fluoro-1,3,4,5-tetrahydrobenzo[c]oxepin-1-yl)pyrrolidine]",+ (LOQ ≤ + <5%),++ (5% ≤ ++ <25%),++ (5% ≤ ++ <25%),+++ (25% ≤ +++ <50%),+ (LOQ ≤ + <5%),+ (LOQ ≤ + <5%),+ (LOQ ≤ + <5%),++ (5% ≤ ++ <25%),+ (LOQ ≤ + <5%),+ (LOQ ≤ + <5%),+ (LOQ ≤ + <5%)
